Assay results taken from the NIST ThermoML archive (doi:10.1016/j.jct.2012.06.012).
± gives the expanded uncertainty stated by the source.

Test: xn = mol fraction of the nth substance listed
Details: Liquid, Vibrating tube method

CCCCCCCCCC [decane] + CCO
mass density (342.81 K, 1000 kPa, x2 = 0.0937): 691.26 ± 0.23 kg/m3 | mass density (342.81 K, 1000 kPa, x2 = 0.1011): 691.32 ± 0.23 kg/m3 | mass density (342.81 K, 1000 kPa, x2 = 0.4963): 698.84 ± 0.22 kg/m3 | mass density (342.81 K, 2000 kPa, x2 = 0.0937): 692.32 ± 0.24 kg/m3 | mass density (342.81 K, 2000 kPa, x2 = 0.1011): 692.38 ± 0.24 kg/m3 | mass density (342.81 K, 2000 kPa, x2 = 0.4963): 699.92 ± 0.24 kg/m3 | mass density (342.81 K, 3000 kPa, x2 = 0.0937): 693.37 ± 0.25 kg/m3 | mass density (342.81 K, 3000 kPa, x2 = 0.1011): 693.43 ± 0.25 kg/m3 | mass density (342.81 K, 3000 kPa, x2 = 0.4963): 700.98 ± 0.25 kg/m3 | mass density (342.81 K, 4000 kPa, x2 = 0.0937): 694.4 ± 0.27 kg/m3 | mass density (342.81 K, 4000 kPa, x2 = 0.1011): 694.46 ± 0.27 kg/m3 | mass density (342.81 K, 4000 kPa, x2 = 0.4963): 702.03 ± 0.26 kg/m3 | mass density (342.81 K, 5000 kPa, x2 = 0.0937): 695.42 ± 0.28 kg/m3 | mass density (342.81 K, 5000 kPa, x2 = 0.1011): 695.48 ± 0.28 kg/m3 | mass density (342.81 K, 5000 kPa, x2 = 0.4963): 703.09 ± 0.28 kg/m3 | mass density (342.81 K, 6000 kPa, x2 = 0.0937): 696.42 ± 0.3 kg/m3 | mass density (342.81 K, 6000 kPa, x2 = 0.1011): 696.48 ± 0.3 kg/m3 | mass density (342.81 K, 6000 kPa, x2 = 0.4963): 704.13 ± 0.29 kg/m3 | mass density (342.81 K, 7000 kPa, x2 = 0.0937): 697.41 ± 0.31 kg/m3 | mass density (342.81 K, 7000 kPa, x2 = 0.1011): 697.47 ± 0.31 kg/m3 | mass density (342.81 K, 7000 kPa, x2 = 0.4963): 705.18 ± 0.3 kg/m3 | mass density (342.81 K, 8000 kPa, x2 = 0.0937): 698.4 ± 0.33 kg/m3 | mass density (342.81 K, 8000 kPa, x2 = 0.1011): 698.46 ± 0.33 kg/m3 | mass density (342.81 K, 8000 kPa, x2 = 0.4963): 706.22 ± 0.32 kg/m3 | mass density (342.81 K, 9000 kPa, x2 = 0.0937): 699.37 ± 0.34 kg/m3 | mass density (342.81 K, 9000 kPa, x2 = 0.1011): 699.44 ± 0.34 kg/m3 | mass density (342.81 K, 9000 kPa, x2 = 0.4963): 707.25 ± 0.33 kg/m3 | mass density (342.81 K, 10000 kPa, x2 = 0.0937): 700.35 ± 0.35 kg/m3 | mass density (342.81 K, 10000 kPa, x2 = 0.1011): 700.42 ± 0.35 kg/m3 | mass density (342.81 K, 10000 kPa, x2 = 0.4963): 708.27 ± 0.34 kg/m3 | mass density (342.81 K, 11000 kPa, x2 = 0.0937): 701.32 ± 0.37 kg/m3 | mass density (342.81 K, 11000 kPa, x2 = 0.1011): 701.38 ± 0.37 kg/m3 | mass density (342.81 K, 11000 kPa, x2 = 0.4963): 709.28 ± 0.36 kg/m3 | mass density (342.81 K, 12000 kPa, x2 = 0.0937): 702.28 ± 0.38 kg/m3 | mass density (342.81 K, 12000 kPa, x2 = 0.1011): 702.33 ± 0.38 kg/m3 | mass density (342.81 K, 12000 kPa, x2 = 0.4963): 710.29 ± 0.37 kg/m3 | mass density (342.81 K, 13000 kPa, x2 = 0.0937): 703.21 ± 0.39 kg/m3 | mass density (342.81 K, 13000 kPa, x2 = 0.1011): 703.27 ± 0.39 kg/m3 | mass density (342.81 K, 13000 kPa, x2 = 0.4963): 711.26 ± 0.38 kg/m3 | mass density (342.81 K, 14000 kPa, x2 = 0.0937): 704.14 ± 0.41 kg/m3 | mass density (342.81 K, 14000 kPa, x2 = 0.1011): 704.2 ± 0.41 kg/m3 | mass density (342.81 K, 14000 kPa, x2 = 0.4963): 712.23 ± 0.4 kg/m3 | mass density (342.81 K, 15000 kPa, x2 = 0.0937): 705.06 ± 0.42 kg/m3 | mass density (342.81 K, 15000 kPa, x2 = 0.1011): 705.12 ± 0.42 kg/m3 | mass density (342.81 K, 15000 kPa, x2 = 0.4963): 713.19 ± 0.41 kg/m3 | mass density (342.81 K, 16000 kPa, x2 = 0.0937): 705.95 ± 0.44 kg/m3 | mass density (342.81 K, 16000 kPa, x2 = 0.1011): 706.02 ± 0.44 kg/m3 | mass density (342.81 K, 16000 kPa, x2 = 0.4963): 714.13 ± 0.42 kg/m3 | mass density (342.81 K, 17000 kPa, x2 = 0.0937): 706.83 ± 0.45 kg/m3 | mass density (342.81 K, 17000 kPa, x2 = 0.1011): 706.9 ± 0.45 kg/m3 | mass density (342.81 K, 17000 kPa, x2 = 0.4963): 715.07 ± 0.44 kg/m3 | mass density (342.81 K, 18000 kPa, x2 = 0.0937): 707.7 ± 0.46 kg/m3 | mass density (342.81 K, 18000 kPa, x2 = 0.1011): 707.77 ± 0.46 kg/m3 | mass density (342.81 K, 18000 kPa, x2 = 0.4963): 715.97 ± 0.45 kg/m3 | mass density (342.81 K, 19000 kPa, x2 = 0.0937): 708.56 ± 0.48 kg/m3 | mass density (342.81 K, 19000 kPa, x2 = 0.1011): 708.63 ± 0.48 kg/m3 | mass density (342.81 K, 19000 kPa, x2 = 0.4963): 716.86 ± 0.46 kg/m3 | mass density (342.81 K, 20000 kPa, x2 = 0.0937): 709.39 ± 0.49 kg/m3 | mass density (342.81 K, 20000 kPa, x2 = 0.1011): 709.45 ± 0.49 kg/m3 | mass density (342.81 K, 20000 kPa, x2 = 0.4963): 717.73 ± 0.48 kg/m3 | mass density (342.86 K, 1000 kPa, x2 = 0.7526): 711.77 ± 0.21 kg/m3 | mass density (342.86 K, 1000 kPa, x2 = 0.9014): 726.79 ± 0.21 kg/m3 | mass density (342.86 K, 2000 kPa, x2 = 0.7526): 712.88 ± 0.23 kg/m3 | mass density (342.86 K, 2000 kPa, x2 = 0.9014): 727.93 ± 0.22 kg/m3 | mass density (342.86 K, 3000 kPa, x2 = 0.7526): 713.97 ± 0.24 kg/m3 | mass density (342.86 K, 3000 kPa, x2 = 0.9014): 729.05 ± 0.23 kg/m3 | mass density (342.86 K, 4000 kPa, x2 = 0.7526): 715.06 ± 0.25 kg/m3 | mass density (342.86 K, 4000 kPa, x2 = 0.9014): 730.15 ± 0.24 kg/m3 | mass density (342.86 K, 5000 kPa, x2 = 0.7526): 716.15 ± 0.27 kg/m3 | mass density (342.86 K, 5000 kPa, x2 = 0.9014): 731.27 ± 0.25 kg/m3 | mass density (342.86 K, 6000 kPa, x2 = 0.7526): 717.23 ± 0.28 kg/m3 | mass density (342.86 K, 6000 kPa, x2 = 0.9014): 732.36 ± 0.27 kg/m3 | mass density (342.86 K, 7000 kPa, x2 = 0.7526): 718.31 ± 0.29 kg/m3 | mass density (342.86 K, 7000 kPa, x2 = 0.9014): 733.45 ± 0.28 kg/m3 | mass density (342.86 K, 8000 kPa, x2 = 0.7526): 719.38 ± 0.3 kg/m3 | mass density (342.86 K, 8000 kPa, x2 = 0.9014): 734.54 ± 0.29 kg/m3 | mass density (342.86 K, 9000 kPa, x2 = 0.7526): 720.44 ± 0.32 kg/m3 | mass density (342.86 K, 9000 kPa, x2 = 0.9014): 735.62 ± 0.3 kg/m3 | mass density (342.86 K, 10000 kPa, x2 = 0.7526): 721.49 ± 0.33 kg/m3 | mass density (342.86 K, 10000 kPa, x2 = 0.9014): 736.69 ± 0.31 kg/m3 | mass density (342.86 K, 11000 kPa, x2 = 0.7526): 722.54 ± 0.34 kg/m3 | mass density (342.86 K, 11000 kPa, x2 = 0.9014): 737.75 ± 0.33 kg/m3 | mass density (342.86 K, 12000 kPa, x2 = 0.7526): 723.57 ± 0.36 kg/m3 | mass density (342.86 K, 12000 kPa, x2 = 0.9014): 738.79 ± 0.34 kg/m3 | mass density (342.86 K, 13000 kPa, x2 = 0.7526): 724.58 ± 0.37 kg/m3 | mass density (342.86 K, 13000 kPa, x2 = 0.9014): 739.82 ± 0.35 kg/m3 | mass density (342.86 K, 14000 kPa, x2 = 0.7526): 725.59 ± 0.38 kg/m3 | mass density (342.86 K, 14000 kPa, x2 = 0.9014): 740.84 ± 0.36 kg/m3 | mass density (342.86 K, 15000 kPa, x2 = 0.7526): 726.57 ± 0.39 kg/m3 | mass density (342.86 K, 15000 kPa, x2 = 0.9014): 741.84 ± 0.37 kg/m3
